Read-outs that look alike come from different tables or passages of the source.
Key:
A549 (lung carcinoma) = assay: In vitro antiproliferation assay, A549 cells (TABLE 1 6 point assay; TABLE 2); assay type: cell-based; conditions: 6 point assay, read-out: A549, 6pt (IC50, inhibition of proliferation)
Procedure: (§1) Certain compounds were tested against other cell types for their ability to inhibit proliferation in standard antiproliferation assays.

[1] = system: H1299 (non-small cell lung carcinoma); assay: In vitro antiproliferation assay, H1299 cells (TABLE 1 6 point assay; TABLE 2); assay type: cell-based; conditions: 6 point assay, read-out: H1299, 6pt (IC50, inhibition of proliferation)
Procedure: as §1

[2] = Homo sapiens, NCI-H1299, H1299 cells

CN1CCN(Cc2cc3cc(Nc4ncc(F)c(N[C@H]5CCC[C@H]5C(N)=O)n4)ccc3o2)CC1 (racemic) [compound 131, Racemic-cis-N4-(2-aminocarbonylcyclopent-1-yl)-5-fluoro-N2-[2-(4-methylpiperazin-1-ylmethylene)benzofuran-5-yl]-2,4-pyrimidinediamine] was tested, and the IC50 (A549 (lung carcinoma); Homo sapiens, A549, A549 cells) was 1 to 10 µM and the IC50 [1, 2] was 1 to 10 µM.

In the case of COC(=O)CN1CCc2ccc(Nc3ncc(F)c(N[C@H]4CCC[C@H]4C(N)=O)n3)cc2C1 (racemic) [compound 132, Racemic-cis-N4-(2-aminocarbonylcyclopent-1-yl)-5-fluoro-N2-[2-(methoxycarbonylmethylene)-1,2,3,4-tetrahydroisoquin-7-yl]-2,4-pyrimidinediamine], the IC50 (A549 (lung carcinoma); Homo sapiens, A549, A549 cells) is reported as 0.1 to 1 µM and the IC50 [1, 2] is reported as 0.1 to 1 µM.

COc1cc(Nc2ncc(F)c(NC3C4C=CC(C4)C3C(N)=O)n2)ccc1S(N)(=O)=O (racemic) [compound 133, Racemic-(2-exo,3-exo)-N4-(3-aminocarbonylbicyclo[2.2.1]hept-5-en-2-yl)-N2-(4-aminosulfonyl-3-methoxyphenyl)-5-fluoro-2,4-pyrimidinediamine] gave an IC50 (A549 (lung carcinoma); Homo sapiens, A549, A549 cells) of 1 to 10 µM and an IC50 [1, 2] of 1 to 10 µM.

CN1CCN(CCn2ccc3cc(Nc4ncc(F)c(NC5C6C=CC(C6)C5C(N)=O)n4)ccc32)CC1 (racemic) [compound 134, Racemic-(2-exo,3-exo)-N4-(3-aminocarbonylbicyclo[2.2.1]hept-5-en-2-yl)-5-fluoro-N2-{1-[2-(4-methylpiperazin-1-yl)ethyl]indol-5-yl}-2,4-pyrimidinediamine] was tested, and the IC50 (A549 (lung carcinoma); Homo sapiens, A549, A549 cells) was 0.1 to 1 µM and the IC50 [1, 2] was 0.1 to 1 µM.

Cc1cc(Nc2ncc(F)c(NC3C4C=CC(C4)C3C(=O)OC3C[C@@H](C)CC[C@@H]3C(C)C)n2)ccc1N1CCN(C)CC1 (mixture of isomers) [compound 135, Racemic (2-exo,3-exo)-5-Fluoro-N4-[3-(1R,2S,5R)-(−)-menthyloxycarbonylbicyclo[2.2.1]hept-5-en-2-yl]-N2-[3-methyl-4-(4-methylpiperazin-1-yl)phenyl]-2,4-pyrimidinediamine] gave an IC50 (A549 (lung carcinoma); Homo sapiens, A549, A549 cells) of 1 to 10 µM and an IC50 [1, 2] of 1 to 10 µM.

In the case of Cc1cc(Nc2ncc(F)c(N[C@H]3[C@@H](C(N)=O)[C@@H]4C=C[C@H]3C4)n2)ccc1OC1CCCN(C)C1 (mixture of isomers) [compound 147, (1R,2R,3S,4S)-N4-(3-Aminocarbonylbicyclo[2.2.1]hept-5-en-2-yl)-5-fluoro-N2-[3-methyl-4-(1-methylpiperidin-3(±)-yloxy)phenyl]-2,4-pyrimidinediamine], the IC50 (A549 (lung carcinoma); A549 cells) is reported as at most 0.1 µM and the IC50 ([1]; H1299 cells) is reported as at most 0.1 µM.

NC(=O)[C@@H]1CCC[C@@H]1Nc1nc(Nc2ccc3c(c2)NCC3)ncc1F (racemic) [compound 156, Racemic-cis-N4-(2-aminocarbonylcyclopent-1-yl)-N2-(2,3-dihydroindol-6-yl)-5-fluoro-2,4-pyrimidinediamine] gave an IC50 (A549 (lung carcinoma); Homo sapiens, A549, A549 cells) of 1 to 10 µM and an IC50 [1, 2] of 1 to 10 µM.

NC(=O)[C@@H]1CCC[C@@H]1Nc1nc(Nc2ccc3c(c2)CCN3)ncc1F (racemic) [compound 157, Racemic-cis-N4-(2-aminocarbonylcyclopent-1-yl)-N2-(2,3-dihydroindol-5-yl)-5-fluoro-2,4-pyrimidinediamine] gave an IC50 (A549 (lung carcinoma); Homo sapiens, A549, A549 cells) of 1 to 10 µM and an IC50 [1, 2] of 1 to 10 µM.

For Cc1cc(Nc2ncc(F)c(N[C@H]3CCC[C@H]3C(=O)NCC3CC3)n2)ccc1N1CCN(C)CC1 (racemic) [compound 158, Racemic-cis-N4-[2-(N-cyclopropylmethyl)aminocarbonylcyclopent-1-yl]-5-fluoro-N2-[4-(4-methylpiperazin-1-yl)-3-methylphenyl]-2,4-pyrimidinediamine], the IC50 (A549 (lung carcinoma); Homo sapiens, A549, A549 cells) was 0.1 to 1 µM and the IC50 [1, 2] was 1 to 10 µM.

Cc1cc(Nc2ncc(F)c(N[C@H]3CCC[C@H]3C(=O)NC3CC3)n2)ccc1N1CCN(C)CC1 (racemic) [compound 159, Racemic-cis-N4-[2-(N-cyclpropyl)aminocarbonylcyclopent-1-yl]-5-fluoro-N2-[4-(4-methylpiperazin-1-yl)-3-methylphenyl]-2,4-pyrimidinediamine] showed an IC50 (A549 (lung carcinoma); Homo sapiens, A549, A549 cells) of 0.1 to 1 µM and an IC50 [1, 2] of 0.1 to 1 µM.

Source: patent US7868013B2, “Cycloalkyl substituted pyrimidinediamine compounds and their uses” (Rigel Pharmaceuticals, Inc., priority 2004, dated 2011)
